Source: patent US12552826B2, “PRMT5 inhibitors” (Merck Sharp & Dohme LLC, priority 2018, dated 2026)

biological target: T1, PRMT5 (Homo sapiens, UniProt O14744); experiment: PRMT5 Cell Target Engagement (TE) Assay; type: cell-based; conditions: MCF-7 cells, 3 days treatment, nuclear SDMA by high content imaging
T1 construct: endogenous in cells; host or cells: MCF-7
Source text: The PRMT5 TE assay is a biomarker assay for identifying compounds that inhibit symmetric dimethylation of arginine (SDMA) of PRMT5 substrates. The following substrates have been reported for PRMT5: Histone H2A and H4 R3, Histone H3 R2, Histone H3 R8, spliceosome Sm proteins, ribosomal protein RPS10, p53, FEN1, nucleoplasmin, nucleolin, EGFR and EBNA. The assay will focus on detecting symmetrically dimethylated nuclear proteins using high content imaging technology. Detection of the expression of symmetrically dimethylated nuclear proteins is through a mixture of primary rabbit monoclonal antibodies to SDMA (CST 13222), which in turn recognized by an Alexafluor 488 dye-conjugated anti-rabbit IgG secondary antibody. The IN Cell Analyzer 2200 or Opera-Phenix measures nuclear Alexafluor 488 fluorescent dye intensity that is directly related to the level of expression of symmetrically dimethylated nuclear proteins at the single cell level. Nuclear AF488 dye intensities are compared to the mean value for DMSO treated cells (MIN) to report percent of inhibition for each compound-treated well.
In this assay, the cell potency (EC50) of each compound was determined from a ten point (1:3 serial dilution; top compound concentration of 10000 nM) titration curve using the following outlined procedure. Each well of a BD falcon collagen coated black/clear bottom 384-well plate was seeded with 4000 MCF-7 cells in 30 μl media and allowed to attach for 5 hours. Media is ATCC-formulated Eagle's Minimum Essential Medium, Catalog No. 30-2003. The following components were added to the base medium: 0.01 mg/mL human recombinant insulin; fetal bovine serum to a final concentration of 10%. Additional 30 μl of media containing 2× compounds were added to each well. Cells were treated for 3 days in 37° C. CO2 incubator. On day 3, cells were fixed with Cytofix, permeabilized with 0.4% Triton-X-100/Cytofix, and washed with D-PBS without Ca/Mg. Cells were blocked with Licor Odessey blocking reagent for 1 hour at room temperature, followed by incubation with anti-SDMA (1:1000) antibody at 4° C. overnight. 1° antibody was removed, followed by three washings with DPBS without Ca/Mg and 0.05% Tween20. Hoechst (5 μg/mL), Cell Mask deep stain (1:2000) and Alexa488-conjugated goat anti-rabbit IgG (2 μg/mL) was added for 1 hour at room temperature. A final washing step (three washes) was performed before sealing plate for imaging on In Cell Analyzer 2200 or Opera-Phenix. Images from analyzer were uploaded to Columbus for image analysis. IC50 values were determined by 4 parameters robust fit of percent fluorescence units vs. (Log10) compound concentrations.

T1 sequence (O14744 whole entry): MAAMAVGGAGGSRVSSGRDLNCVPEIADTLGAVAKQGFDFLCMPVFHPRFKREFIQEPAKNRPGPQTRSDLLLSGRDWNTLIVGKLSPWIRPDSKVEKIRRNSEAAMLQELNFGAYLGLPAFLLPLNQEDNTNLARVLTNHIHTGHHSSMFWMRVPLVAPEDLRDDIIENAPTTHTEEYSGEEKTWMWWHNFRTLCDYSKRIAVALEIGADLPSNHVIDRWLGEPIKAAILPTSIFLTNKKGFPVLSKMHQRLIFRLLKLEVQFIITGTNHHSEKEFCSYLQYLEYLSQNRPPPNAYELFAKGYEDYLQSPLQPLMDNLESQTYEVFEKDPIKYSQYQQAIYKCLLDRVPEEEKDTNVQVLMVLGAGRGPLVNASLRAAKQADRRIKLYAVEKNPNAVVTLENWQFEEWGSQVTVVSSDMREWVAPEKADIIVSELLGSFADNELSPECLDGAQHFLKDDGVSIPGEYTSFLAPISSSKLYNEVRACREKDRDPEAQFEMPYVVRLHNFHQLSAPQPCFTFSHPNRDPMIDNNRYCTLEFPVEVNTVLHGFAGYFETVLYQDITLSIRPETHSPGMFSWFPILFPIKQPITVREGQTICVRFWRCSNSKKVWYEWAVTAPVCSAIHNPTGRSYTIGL
T1 sequence (Q9BQA1 whole entry partner): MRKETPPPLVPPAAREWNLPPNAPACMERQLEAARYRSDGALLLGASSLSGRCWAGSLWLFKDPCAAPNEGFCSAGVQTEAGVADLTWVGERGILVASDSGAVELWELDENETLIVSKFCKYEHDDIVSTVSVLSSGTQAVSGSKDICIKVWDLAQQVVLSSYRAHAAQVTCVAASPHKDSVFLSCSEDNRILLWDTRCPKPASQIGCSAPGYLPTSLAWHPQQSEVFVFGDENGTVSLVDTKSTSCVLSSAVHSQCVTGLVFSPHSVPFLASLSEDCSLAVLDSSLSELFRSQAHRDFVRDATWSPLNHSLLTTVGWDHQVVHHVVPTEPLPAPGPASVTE

EC50 | SMILES
2270 nM | Cc1ccccc1[C@@H](O)[C@H]1O[C@@H](n2ccc3c(N)ncnc32)[C@H](O)[C@]1(C)O [Example 40, 7-[(5R)-3-C-methyl-5-C-(2-methylphenyl)-beta-D-ribofuranosyl]-7H-pyrrolo[2,3-d]pyrimidin-4-amine]
2740 nM | COc1ccc([C@@H](O)[C@H]2O[C@@H](n3ccc4c(N)ncnc43)[C@H](O)[C@]2(C)O)cc1 [Example 32, 7-[(5R)-5-C-(4-methoxyphenyl)-3-C-methyl-beta-D-ribofuranosyl]-7H-pyrrolo[2,3-d]pyrimidin-4-amine]
202 nM | C[C@@]1(O)[C@@H]([C@H](O)c2ccccc2)O[C@@H](n2ccc3c(N)ncnc32)[C@@H]1O [Example 11, 7-[(5R)-3-C-methyl-5-C-phenyl-beta-D-ribofuranosyl]-7H-pyrrolo[2,3-d]pyrimidin-4-amine]
6.8 nM | C[C@@]1(O)[C@@H]([C@H](O)c2cc(F)cc(C(F)F)c2F)O[C@@H](n2ccc3c(N)ncnc32)[C@@H]1O [Example 6, (2R,3S,4R,5R)-5-(4-amino-7H-pyrrolo[2,3-d]pyrimidin-7-yl)-2-((R)-(3-(difluoromethyl)-2,5-difluorophenyl)(hydroxy)methyl)-3-methyltetrahydrofuran-3,4-diol]
> 10000 nM | C[C@@]1(O)[C@@H]([C@@H](O)c2cccc(C(F)F)c2)O[C@@H](n2ccc3c(N)ncnc32)[C@@H]1O [Example 57, 7-{(5S)-5-C-[3-(difluoromethyl)phenyl]-3-C-methyl-beta-D-ribofuranosyl}-7H-pyrrolo[2,3-d]pyrimidin-4-amine]
3170 nM | Cc1ccc([C@@H](O)[C@H]2O[C@@H](n3ccc4c(N)ncnc43)[C@H](O)[C@]2(C)O)cc1 [Example 30, 7-[(5R)-3-C-methyl-5-C-(4-methylphenyl)-beta-D-ribofuranosyl]-7H-pyrrolo[2,3-d]pyrimidin-4-amine]
> 10000 nM | Cc1cccc([C@H](O)[C@H]2O[C@@H](n3ccc4c(N)ncnc43)[C@H](O)[C@]2(C)O)c1 [Example 39, 7-[(5S)-3-C-methyl-5-C-(3-methylphenyl)-beta-D-ribofuranosyl]-7H-pyrrolo[2,3-d]pyrimidin-4-amine]
> 10000 nM | C[C@@]1(O)[C@@H]([C@@H](O)c2cc(F)cc(C(F)(F)F)c2)O[C@@H](n2ccc3c(N)ncnc32)[C@@H]1O [Example 59, 7-{(5S)-5-C-[3-fluoro-5-(trifluoromethyl)phenyl]-3-C-methyl-beta-D-ribofuranosyl}-7H-pyrrolo[2,3-d]pyrimidin-4-amine]
65 nM | Cc1ncnc2c1ccn2[C@@H]1O[C@H]([C@@H](C)c2cccc3c2CNCC3)[C@@](C)(O)[C@H]1O [Example 87, (2R,3S,4R,5R)-3-methyl-5-(4-methyl-7H-pyrrolo[2,3-d]pyrimidin-7-yl)-2-((S)-1-(1,2,3,4-tetrahydroisoquinolin-8-yl)ethyl)tetrahydrofuran-3,4-diol]
> 10000 nM | C[C@@]1(O)[C@@H]([C@@H](O)c2ccccc2)O[C@@H](n2ccc3c(N)ncnc32)[C@@H]1O [Example 12, 7-[(5S)-3-C-methyl-5-C-phenyl-beta-D-ribofuranosyl]-7H-pyrrolo[2,3-d]pyrimidin-4-amine]
> 10000 nM | C[C@@]1(O)[C@@H]([C@@H](O)c2cc(F)c(F)c(F)c2)O[C@@H](n2ccc3c(N)ncnc32)[C@@H]1O [Example 35, 7-[(5S)-3-C-methyl-5-C-(3,4,5-trifluorophenyl)-beta-D-ribofuranosyl]-7H-pyrrolo[2,3-d]pyrimidin-4-amine]
391 nM | C[C@@]1(O)[C@@H]([C@H](O)c2cccc(C(F)(F)F)c2)O[C@@H](n2ccc3c(N)ncnc32)[C@@H]1O [Example 54, 7-{(5R)-3-C-methyl-5-C-[3-(trifluoromethyl)phenyl]-beta-D-ribofuranosyl}-7H-pyrrolo[2,3-d]pyrimidin-4-amine]
6550 nM | C[C@@]1(O)[C@@H]([C@@H](O)c2cc(F)cc(C(F)F)c2F)O[C@@H](n2ccc3c(N)ncnc32)[C@@H]1O [Example 7, (2R,3S,4R,5R)-5-(4-amino-7H-pyrrolo[2,3-d]pyrimidin-7-yl)-2-((S)-(3-(difluoromethyl)-2,5-difluorophenyl)(hydroxy)methyl)-3-methyltetrahydrofuran-3,4-diol]
474 nM | C[C@@]1(O)[C@@H]([C@H](O)c2ccc(F)cc2)O[C@@H](n2ccc3c(N)ncnc32)[C@@H]1O [Example 24, 7-[(5R)-5-C-(4-fluorophenyl)-3-C-methyl-beta-D-ribofuranosyl]-7H-pyrrolo[2,3-d]pyrimidin-4-amine]
> 10000 nM | C[C@@]1(O)[C@@H]([C@@H](O)c2cccc(C(F)(F)F)c2)O[C@@H](n2ccc3c(N)ncnc32)[C@@H]1O [Example 55, 7-{(5S)-3-C-methyl-5-C-[3-(trifluoromethyl)phenyl]-beta-D-ribofuranosyl}-7H-pyrrolo[2,3-d]pyrimidin-4-amine]
> 10000 nM | C[C@@]1(O)[C@@H]([C@@H](O)c2ccc(F)c(F)c2F)O[C@@H](n2ccc3c(N)ncnc32)[C@@H]1O [Example 51, 7-[(5S)-3-C-methyl-5-C-(2,3,4-trifluorophenyl)-beta-D-ribofuranosyl]-7H-pyrrolo[2,3-d]pyrimidin-4-amine]
59 nM | C[C@@]1(O)[C@@H]([C@H](O)c2cc(F)cc(F)c2)O[C@@H](n2ccc3c(N)ncnc32)[C@@H]1O [Example 22, 7-[(5R)-5-C-(3,5-difluorophenyl)-3-C-methyl-beta-D-ribofuranosyl]-7H-pyrrolo[2,3-d]pyrimidin-4-amine]
182 nM | C[C@]1(O)[C@@H](O)[C@H](n2ccc3c(N)ncnc32)O[C@@H]1[C@](C)(O)c1cccc2c1CNCC2 [Example 63, 7-[6-deoxy-3-C-methyl-5-C-(1,2,3,4-tetrahydroisoquinolin-8-yl)-beta-D-ribo-hexofuranosyl]-7H-pyrrolo[2,3-d]pyrimidin-4-amine]
1.4 nM | Cc1ncnc2c1ccn2[C@@H]1O[C@H]([C@@H](C)c2cc(C(F)F)c(F)c3c2CNCC3)[C@@](C)(O)[C@H]1O (single isomer, unassigned) [Example 93]
> 10000 nM | Cc1ccc([C@H](O)[C@H]2O[C@@H](n3ccc4c(N)ncnc43)[C@H](O)[C@]2(C)O)cc1 [Example 31, 7-[(5S)-3-C-methyl-5-C-(4-methylphenyl)-beta-D-ribofuranosyl]-7H-pyrrolo[2,3-d]pyrimidin-4-amine]
76 nM | Cc1ncnc2c1ccn2[C@@H]1O[C@H]([C@H](O)c2cc(C(F)F)c(F)c3c2CNCC3)[C@@](C)(O)[C@H]1O (single isomer, unassigned) [Example 89]
997 nM | COc1cccc([C@@H](O)[C@H]2O[C@@H](n3ccc4c(N)ncnc43)[C@H](O)[C@]2(C)O)c1 [Example 36, 7-[(5R)-5-C-(3-methoxyphenyl)-3-C-methyl-beta-D-ribofuranosyl]-7H-pyrrolo[2,3-d]pyrimidin-4-amine]
5.6 nM | C[C@]1(O)[C@@H](O)[C@H](n2ccc3c(N)ncnc32)O[C@@H]1[C@](C)(O)c1cc(C(F)F)c(F)c2c1CNCC2 [Example 10, (2R,3S,4R,5R)-5-(4-amino-7H-pyrrolo[2,3-d]pyrimidin-7-yl)-2-((R)-1-(6-(difluoromethyl)-5-fluoro-1,2,3,4-tetrahydroisoquinolin-8-yl)-1-hydroxyethyl)-3-methyltetrahydrofuran-3,4-diol]
> 10000 nM | C[C@@]1(O)[C@@H]([C@@H](O)c2ccc(F)cc2Cl)O[C@@H](n2ccc3c(N)ncnc32)[C@@H]1O [Example 49, 7-[(5S)-5-C-(2-chloro-4-fluorophenyl)-3-C-methyl-beta-D-ribofuranosyl]-7H-pyrrolo[2,3-d]pyrimidin-4-amine]
219 nM | C[C@@]1(O)[C@@H]([C@H](O)c2cc(F)c(F)c(C(F)F)c2)O[C@@H](n2ccc3c(N)ncnc32)[C@@H]1O [Example 64, 7-{(5R)-5-C-[3-(difluoromethyl)-4,5-difluorophenyl]-3-C-methyl-beta-D-ribofuranosyl}-7H-pyrrolo[2,3-d]pyrimidin-4-amine]
120 nM | C[C@H](c1cc(F)cc(C(F)F)c1)[C@H]1O[C@@H](n2ccc3c(N)ncnc32)[C@H](O)[C@]1(C)O (single isomer, unassigned) [Example 83]
157 nM | C[C@@]1(O)[C@@H]([C@@H](O)c2cc(C(F)F)c(F)c3c2CNCC3)O[C@@H](n2ccc3c(N)ncnc32)[C@@H]1O [Example 9, (2R,3S,4R,5R)-5-(4-amino-7H-pyrrolo[2,3-d]pyrimidin-7-yl)-2-((S)-(6-(difluoromethyl)-5-fluoro-1,2,3,4-tetrahydroisoquinolin-8-yl)(hydroxy)methyl)-3-methyltetrahydrofuran-3,4-diol]
